Reference: ChEMBL document CHEMBL5321279 (J Med Chem, 2023)
Activity calls are given as the source filed them. No cut-off for these calls is given here.

Legend:
[1] = (§1) Cytotoxicity against human primary hepatocytes assessed as reduction in cell growth measured after 5 days by CellTiter-Glo assay; type: toxicity, cell-based, Hepatocyte; settings: primary hepatocytes, time 5 day
[2] = (§2) Cytotoxicity against quiescent human PBMC cells assessed as reduction in cell growth measured after 5 days by CellTiter-Glo assay; type: toxicity, cell-based; settings: quiescent PBMC, time 5 day
[3] = AUC(0 to 24 hrs) in cynomolgus monkey at 5 mg/kg, po measured upto 24 hrs by LC-MS/MS analysis; type: ADME, organism-based, Macaca fascicularis; set-up: dose 5 mg/kg, time < 24 hrs, route po; settings: in vivo
[4] = AUC(0 to 24 hrs) in rat at 1 mg/kg, iv measured upto 24 hrs by LC-MS/MS analysis; type: ADME, organism-based; set-up: dose 1 mg/kg, time < 24 hrs, route iv; settings: in vivo
[5] = AUC(0 to 24 hrs) in dog assessed as prodrug conversion by measuring (2R,3R,4S,5R)-2-(4-aminopyrrolo[2,1-f][1,2,4]triazin-7-yl)-3,4-dihydroxy-5-(hydroxymethyl)tetrahydrofuran-2-carbonitrile at […], po measured upto 24 hrs by LC-MS/MS analysis; type: ADME, organism-based, Canis lupus familiaris; settings: in vivo
SARS-CoV-2 [6] = test: Antiviral activity against SARS-CoV-2 infected in African green monkey assessed as reduction in viral genomic RNA load in throat swabs at 60 to 120 mg/kg, po qd administered for 2 days starting from 8 hrs post infection by RT-qPCR analysis; type: functional, organism-based; settings: Severe acute respiratory syndrome coronavirus 2, dose lower 60.0 mg/kg, dose upper […], time 2.0 day
[7] = Stability of compound in dog liver S9 fraction assessed as half life at pH 7.4 measured upto 90 mins by LC-MS/MS analysis; type: ADME, subcellular, Canis lupus familiaris
[8] = Cmax in African green monkey assessed as prodrug conversion by measuring (2R,3R,4S,5R)-2-(4-aminopyrrolo[2,1-f][1,2,4]triazin-7-yl)-3,4-dihydroxy-5-(hydroxymethyl)tetrahydrofuran-2-carbonitrile at […], po measured upto 24 hrs by LC-MS/MS analysis; type: ADME, organism-based; settings: chlorocebus sabaeus, in vivo
[9] = Oral bioavailability in African green monkey assessed as prodrug conversion by measuring (2R,3R,4S,5R)-2-(4-aminopyrrolo[2,1-f][1,2,4]triazin-7-yl)-3,4-dihydroxy-5-(hydroxymethyl)tetrahydrofuran-2-carbonitrile at 86.5 mg/kg measured upto 24 hrs by LC-MS/MS analysis; type: ADME, organism-based; settings: chlorocebus sabaeus, in vivo
Hepatocyte = test: as §1; type: toxicity, cell-based; settings: hepatocytes, 120 h, time 5 day
[10] = AUC(0 to 24 hrs) in African green monkey assessed as prodrug conversion by measuring (2R,3R,4S,5R)-2-(4-aminopyrrolo[2,1-f][1,2,4]triazin-7-yl)-3,4-dihydroxy-5-(hydroxymethyl)tetrahydrofuran-2-carbonitrile at 60 mg/kg, po measured upto 24 hrs by LC-MS/MS analysis; type: ADME, organism-based; set-up: time < 24 hrs, dose 60 mg/kg, route po; settings: chlorocebus sabaeus, in vivo
SARS-CoV-2 [11] = test: Antiviral activity against SARS-CoV-2 infected in African green monkey assessed as reduction in viral load in BALF at 120 mg/kg, po qd administered for 6 days starting from 8 hrs post infection by PFA assay; type: functional, organism-based; settings: Severe acute respiratory syndrome coronavirus 2, time 6.0 day
[12] = Oral bioavailability in African green monkey assessed as prodrug conversion by measuring (2R,3R,4S,5R)-2-(4-aminopyrrolo[2,1-f][1,2,4]triazin-7-yl)-3,4-dihydroxy-5-(hydroxymethyl)tetrahydrofuran-2-carbonitrile at 60 mg/kg measured upto 24 hrs by LC-MS/MS analysis; type: ADME, organism-based; settings: chlorocebus sabaeus, in vivo
[13] = Oral bioavailability in cynomolgus monkey assessed as prodrug conversion by measuring (2R,3R,4S,5R)-2-(4-aminopyrrolo[2,1-f][1,2,4]triazin-7-yl)-3,4-dihydroxy-5-(hydroxymethyl)tetrahydrofuran-2-carbonitrile at 11.7 mg/kg measured upto 24 hrs by LC-MS/MS analysis; type: ADME, organism-based, Macaca fascicularis; settings: in vivo
[14] = Oral bioavailability in African green monkey assessed as prodrug conversion by measuring (2R,3R,4S,5R)-2-(4-aminopyrrolo[2,1-f][1,2,4]triazin-7-yl)-3,4-dihydroxy-5-(hydroxymethyl)tetrahydrofuran-2-carbonitrile at […] measured upto 24 hrs by LC-MS/MS analysis; type: ADME, organism-based; settings: chlorocebus sabaeus, in vivo
[15] = AUC(0 to 24 hrs) in African green monkey infected with SARS-CoV-2 assessed as prodrug conversion by measuring (2R,3R,4S,5R)-2-(4-aminopyrrolo[2,1-f][1,2,4]triazin-7-yl)-3,4-dihydroxy-5-(hydroxymethyl)tetrahydrofuran-2-carbonitrile at 60 mg/kg, po qd measured after 6 days by LC-MS/MS analysis; type: ADME, organism-based, Severe acute respiratory syndrome coronavirus 2; set-up: time 6 day, dose 60 mg/kg, route po; settings: in vivo
[16] = Drug metabolism in human NHBE-T cells assessed as Nucleotide triphosphate metabolite formation at 10 uM measured after 48 hrs by LC-MS analysis; type: ADME, cell-based
[17] = Aqueous stability of the compound assessed as compound remaining at pH 2 measured at 24 hrs by UPLC analysis; type: physicochemical; settings: aqueous solution, read-out: Stability
[18] = Stability of compound in cynomolgus monkey liver S9 fraction assessed as half life at pH 7.4 measured upto 90 mins by LC-MS/MS analysis; type: ADME, subcellular, Macaca fascicularis
[19] = Half life in dog assessed as prodrug conversion by measuring (2R,3R,4S,5R)-2-(4-aminopyrrolo[2,1-f][1,2,4]triazin-7-yl)-3,4-dihydroxy-5-(hydroxymethyl)tetrahydrofuran-2-carbonitrile at […], po measured upto 24 hrs by LC-MS/MS analysis; type: ADME, organism-based, Canis lupus familiaris; settings: in vivo
[20] = Prodrug conversion in SARS-CoV-2 infected in African green monkey assessed as (2R,3R,4S,5R)-2-(4-aminopyrrolo[2,1-f][1,2,4]triazin-7-yl)-3,4-dihydroxy-5-(hydroxymethyl)tetrahydrofuran-2-carbonitrile mediated log10 reduction of genomic RNA at 60 mg/kg, po qd measured after 6 days by RT-qPCR analysis; type: ADME, organism-based, Severe acute respiratory syndrome coronavirus 2; settings: in vivo, time 6 day
[21] = Cmax in rat assessed as prodrug conversion by measuring (2R,3R,4S,5R)-2-(4-aminopyrrolo[2,1-f][1,2,4]triazin-7-yl)-3,4-dihydroxy-5-(hydroxymethyl)tetrahydrofuran-2-carbonitrile at 6 mg/kg, po measured upto 24 hrs by LC-MS/MS analysis; type: ADME, organism-based; set-up: dose 6 mg/kg, time < 24 hrs, route po; settings: in vivo
[22] = Stability of compound in dog gastrointestinal S9 fraction assessed as half life at pH 7.4 measured upto 120 mins by LC-MS/MS analysis; type: ADME, subcellular, Canis lupus familiaris, Gastrointestinal tract
[23] = AUC(0 to 24 hrs) in African green monkey assessed as prodrug conversion by measuring (2R,3R,4S,5R)-2-(4-aminopyrrolo[2,1-f][1,2,4]triazin-7-yl)-3,4-dihydroxy-5-(hydroxymethyl)tetrahydrofuran-2-carbonitrile at […], po measured upto 24 hrs by LC-MS/MS analysis; type: ADME, organism-based; settings: chlorocebus sabaeus, in vivo
[24] = Oral bioavailability in dog assessed as prodrug conversion by measuring (2R,3R,4S,5R)-2-(4-aminopyrrolo[2,1-f][1,2,4]triazin-7-yl)-3,4-dihydroxy-5-(hydroxymethyl)tetrahydrofuran-2-carbonitrile at […] measured upto 24 hrs by LC-MS/MS analysis; type: ADME, organism-based, Canis lupus familiaris; settings: in vivo
PBMC = test: as §2; type: toxicity, cell-based; settings: pbmc, 120 h, time 5 day
SARS-CoV-2 [25] = test: Antiviral activity against SARS-CoV-2 infected in African green monkey assessed as reduction in viral genomic RNA load in throat swabs at 60 to 120 mg/kg, po qd administered for 1 day starting from 8 hrs post infection by RT-qPCR analysis; type: functional, organism-based; settings: Severe acute respiratory syndrome coronavirus 2, dose lower 60.0 mg/kg, dose upper […]

CCC(CC)COC(=O)[C@H](C)N[P@](=O)(OC[C@H]1O[C@@](C#N)(c2ccc3c(N)ncnn23)[C@H](O)[C@@H]1O)Oc1ccccc1
CC50 at 120 h [1]: 2500 nM | CC50 at 120 h [2]: > 20 µM

N#C[C@@]1(c2ccc3c(N)ncnn23)O[C@H](CO)[C@@H](O)[C@H]1O [GS-441524]
AUC [3]: 1.67 µM·h | AUC [4]: 2.5 µM·h

CC(C)C(=O)OC[C@H]1O[C@@](C#N)(c2ccc3c(N)ncnn23)[C@H](O)[C@@H]1O [OBELDESIVIR]
AUC [5]: 202 µM·h | Activity (SARS-CoV-2 [6]): Active | half-life at […] [7]: 4.3 min | Cmax [8]: 6.81 µM | F [9]: 27% | CC50 (Hepatocyte): > 100 µM | AUC [10]: 129 µM·h | Activity (SARS-CoV-2 [11]): Active | F [12]: 36% | F [13]: 37% | F [14]: 31% | AUC [15]: 111 µM·h | Drug metabolism [16]: Metabolite_Detected | remaining at 24 h [17]: ≥ 94% | half-life at […] [18]: < 2 min | t1/2 [19]: 3.62 h | log(activity) [20]: -1.41 | Cmax [21]: 2100 nM | half-life [22]: < 2 min | AUC [23]: 26.6 µM·h | F [24]: 93% | CC50 (PBMC): > 100 µM | Activity (SARS-CoV-2 [25]): Active
